From patent publication US20240197698A1, “TREATMENT OF ACUTE ANXIETY WITH AN ALPHA-7 NICOTINIC ACETYLCHOLINE RECEPTOR MODULATOR” (Vanda Pharmaceuticals Inc., priority 2022, published 2024)

What was measured:
[1] = test system: subjects with substantial public speaking anxiety; assay type: in vivo, human
[2] = Plasma concentration of VQW-765 after the TSST by LC-MS/MS; conditions: single oral 10 mg; for Mean plasma concentration: female subjects
[3] = test system: subjects with substantial public speaking anxiety; experiment: Trier Social Stress Test (TSST) public speaking challenge, randomized double-blind placebo-controlled study: SUDS, CGI-C, PGI-C; assay type: in vivo, human; parameters: key to SUDS Mean: SUDS 0–100; 0 = no distress/totally relaxed, 100 = highest anxiety ever felt; conditions: for PGI-C Mean / CGI-C Mean: Post-TSST
Procedure: A multicenter, randomized, double-blind, placebo-controlled study evaluates the efficacy and safety of VQW-765 in subjects with substantial public speaking anxiety. […] The study design is illustrated in FIG. 1 and Table 2 (below). Visit 1 includes screening for eligibility. At visit 2, subjects are asked for a baseline SUDS rating and then randomized to one of two arms in a 1:1 ratio. […] VQW-765 is provided in the form of capsules that are white, opaque, hard gelatin, size 3, containing 10 mg VQW-765 and lactose monohydrate, microcrystalline cellulose, methocel, croscarmellose sodium, colloidal silicon dioxide, and magnesium stearate. Placebo capsules are provided in size and appearance identical to those containing VQW-765. Two hours later, subjects are instructed to prepare for a 5-minute speech for a mock job interview (resting phase). After 3 minutes of preparation (anticipation phase), the subject delivered the speech in front of an interview panel with two clinical staff (performance phase). SUDS rating was collected at each minute from the resting to performance phase. Eligible subjects are trained to use SUDS, a self-reported rating scale from 0 to 100, used to measure the intensity of anxiety during the TSST. A SUDS rating of “0” equals “no distress/totally relaxed” and 100 equals “highest anxiety/distress that you have ever felt.” In addition, the Liebowitz Social Anxiety Score (LSAS) is administered, and blood samples are collected for pharmacogenetic analysis. LSAS is a clinician-administered rating scale used to assess how social anxiety plays a role in daily life across a variety of situations. The LSAS is used to study outcomes in clinical trials, and includes 24 items to assess both social anxiety in situations and avoidance of those situations. Each item is rated as 0, none; 1, mild; 2, moderate; or 3, severe. The maximal score is 144. After a waiting period of about two (2) hours from administration of study medication, subjects receive a modified Trier Social Stress Test (TSST) involving a public speaking challenge. The subject is instructed to prepare for a 5-minute speech for a job interview, and is asked for a SUDS rating (resting phase). Then the subject has 3 minutes to mentally prepare. A SUDS rating is collected at each minute interval (anticipation phase). Next, the subject gives a 5-minute speech to an audience of two clinical staff members dressed in white coats and previously unknown to the subject. A SUDS rating is collected just before the speech and then at each minute during the speech (performance phase). The speech is video recorded, and the video camera is observed by the subject. […] Physiological biomarkers associated with anxiety or acute stress response, including heart rate, blood pressure, body temperature, and sweating are monitored continuously by medical devices, including an ePatch Extended Holter Device throughout the Public Speaking challenge.

Cc1ccc(-c2ccc(O[C@H]3CN4CCC3CC4)cn2)cc1 [VQW-765, (R)-3-(6-p-tolyl-pyridin-3-yloxy)-1-aza-bicyclo[2.2.2]octane]
pattern of HRV change ([1]; in vivo): significant decline | pattern of HRV increase ([1]; performance and recovery phases, FIGS. 6C, 6D): steady | Mean plasma concentration ([2]; exposure group PC-1 (n = 7)): 0.25 nM | Mean plasma concentration ([2]; exposure group PC-2 (n = 7)): 1.18 nM | Mean plasma concentration ([2]; exposure group PC-3 (n = 8)): 1.58 nM | Mean plasma concentration ([2]; exposure group PC-4 (n = 8)): 2.06 nM | Mean plasma concentration ([2]; exposure group PC-5 (n = 8)): 2.9 nM | Mean plasma concentration ([2]; exposure group PC-6 (n = 8)): 3.82 nM | Mean plasma concentration ([2]; exposure group PC-7 (n = 8)): 5.1 nM | Mean plasma concentration ([2]; exposure group PC-8 (n = 8)): 7.04 nM | Mean plasma concentration ([2]; exposure group PC-9 (n = 8)): 9.79 nM | Mean plasma concentration ([2]; exposure group PC-10 (n = 7)): 13.39 nM | plasma concentrations in the middle 50%, second and third quartiles [2]: 1.57 to 6.32 nM | SUDS Mean ([3]; Female (n = 82), Anticipation phase, P-value 0.0446 vs placebo): 54.80 | SUDS Mean ([3]; Female (n = 82), Performance phase, P-value 0.0342 vs placebo): 59.55 | SUDS Mean ([3]; Female (n = 82), Pre-dose phase (baseline), P-value 0.2239 vs placebo): 34.27 | SUDS Mean ([3]; Female (n = 82), Resting phase, P-value 0.0576 vs placebo): 49.15 | SUDS Mean ([3]; Female-50% quartile of exposure (n = 38), Anticipation phase, P-value 0.0384 vs placebo): 53.07 | SUDS Mean ([3]; Female-50% quartile of exposure (n = 38), Performance phase, P-value 0.0046 vs placebo): 54.37 | SUDS Mean ([3]; Female-50% quartile of exposure (n = 38), Pre-dose phase (baseline), P-value 0.4530 vs placebo): 36.58 | SUDS Mean ([3]; Female-50% quartile of exposure (n = 38), Resting phase, P-value 0.0577 vs placebo): 47.63 | response on SUDS compared to placebo ([3]; Females, performance phase, p=0.034): larger magnitude and significant response | SUDS Mean ([3]; ITT (n = 116), Anticipation phase, single oral 10 mg, P-value 0.0890 vs placebo): 52.96 | SUDS Mean ([3]; ITT (n = 116), Performance phase, single oral 10 mg, P-value 0.1164 vs placebo): 58.60 | PGI-C Mean ([3]; ITT (n = 116), scale 1 to 7, P-value 0.3993 vs placebo): 3.4 | CGI-C Mean ([3]; ITT (n = 116), scale 1 to 7, P-value 0.4038 vs placebo): 3.6 | SUDS Mean ([3]; ITT (n = 116), Pre-dose phase (baseline), single oral 10 mg, P-value 0.2215 vs placebo): 34.66 | SUDS Mean ([3]; ITT (n = 116), Resting phase, single oral 10 mg, P-value 0.1423 vs placebo): 47.76 | SUDS Mean ([3]; ITT-50% quartile of exposure (n = 56), Anticipation phase, P-value 0.0472 vs placebo): 50.89 | SUDS Mean ([3]; ITT-50% quartile of exposure (n = 56), Performance phase, P-value 0.0332 vs placebo): 55.36 | SUDS Mean ([3]; ITT-50% quartile of exposure (n = 56), Pre-dose phase (baseline), P-value 0.3845 vs placebo): 35.89 | SUDS Mean ([3]; ITT-50% quartile of exposure (n = 56), Resting phase, P-value 0.1059 vs placebo): 46.25 | SUDS Mean ([3]; ITT-LSAS ≥ 60 (n = 97), Anticipation phase, P-value 0.1535 vs placebo): 54.05 | SUDS Mean ([3]; ITT-LSAS ≥ 60 (n = 97), Performance phase, P-value 0.1664 vs placebo): 59.67 | SUDS Mean ([3]; ITT-LSAS ≥ 60 (n = 97), Pre-dose phase (baseline), P-value 0.3225 vs placebo): 37.01 | SUDS Mean ([3]; ITT-LSAS ≥ 60 (n = 97), Resting phase, P-value 0.1509 vs placebo): 49.28 | PGI-C, difference to placebo ([3]; ITT, p=0.399): No significant differences | CGI-C, difference to placebo ([3]; ITT, p=0.404): No significant differences | intensity of anxiety as measured by the SUDS compared to placebo ([3]; ITT, performance phase, p=0.116): trend of improvement | performance anxiety compared to placebo ([3]; LSAS total score≥60 with efficacious exposures, p=0.014): significantly reduced | performance anxiety compared to placebo ([3]; females, LSAS total score≥60 with efficacious exposures, p=0.004): significantly reduced | SUDS compared to placebo ([3]; males with efficacious exposures, FIG. 5C): do not show improvement | SUDS rating compared to placebo ([3]; males, FIG. 2C): do not show improvement | SUDS rating compared to placebo ([3]; middle 50% of exposure, second and third quartiles, VQW-M (1.5-8 pmol/ml), p=0.033): significant improvement | SUDS Mean ([3]; post-hoc, Female-Efficacious exposure (n = 46), Anticipation phase, P-value 0.0116 vs placebo): 51.38 | SUDS Mean ([3]; post-hoc, Female-Efficacious exposure (n = 46), Performance phase, P-value 0.0029 vs placebo): 54.00 | CGI-C Mean ([3]; post-hoc, Female-Efficacious exposure (n = 46), P-value 0.2417 vs placebo): 3.4 | PGI-C Mean ([3]; post-hoc, Female-Efficacious exposure (n = 46), P-value 0.4655 vs placebo): 3.4 | SUDS Mean ([3]; post-hoc, Female-Efficacious exposure (n = 46), Pre-dose phase (baseline), P-value 0.4267 vs placebo): 36.30 | SUDS Mean ([3]; post-hoc, Female-Efficacious exposure (n = 46), Resting phase, P-value 0.0282 vs placebo): 46.52 | SUDS Mean ([3]; post-hoc, ITT-Efficacious exposure (n = 69), Anticipation phase, P-value 0.0165 vs placebo): 49.86 | SUDS Mean ([3]; post-hoc, ITT-Efficacious exposure (n = 69), Performance phase, P-value 0.0202 vs placebo): 54.96 | CGI-C Mean ([3]; post-hoc, ITT-Efficacious exposure (n = 69), P-value 0.4343 vs placebo): 3.5 | PGI-C Mean ([3]; post-hoc, ITT-Efficacious exposure (n = 69), P-value 0.5525 vs placebo): 3.4 | SUDS Mean ([3]; post-hoc, ITT-Efficacious exposure (n = 69), Pre-dose phase (baseline), P-value 0.3368 vs placebo): 35.51 | SUDS Mean ([3]; post-hoc, ITT-Efficacious exposure (n = 69), Resting phase, P-value 0.0471 vs placebo): 45.07 | anxiety (SUDS) during the TSST compared to placebo ([3]; post-hoc, subjects not wearing a face mask (n=5 on VQW-765, n=6 on placebo), FIG. 9): significantly less anxious | performance anxiety compared to placebo ([3]; post-hoc, subjects with efficacious exposures, p=0.020, FIG. 5A): significantly alleviated | CGI-C, difference to placebo ([3]; post-hoc, subjects with efficacious exposures, p=0.325): does not reveal any significant difference | PGI-C, difference to placebo ([3]; post-hoc, subjects with efficacious exposures, p=0.376): does not reveal any significant difference
